# Assay results: patent US20100063156A1, “ANANDAMIDE” (priority 2006, published 2010)
# Columns and labels:
# test animals = settings: introduced into the blood stream; neither decreased nor increased food intake; cited from earlier work
# Sprague-Dawley rats = experiment: Food intake in rats after intragastric infusion of anandamide; assay type: in vivo, rat; settings: for 9-h cumulative food intake: intragastric infusion in sunflower oil, rats food-deprived 15 h, control 27.1 g
# Protocol: An experiment was conducted to measure the effect of different levels of anandamide intake on food intake in rats. Thirteen adult male Sprague-Dawley rats (Charles River, Germany) were surgically equipped with a chronic gastric cannula. Animals were individually housed in plastic cages (42×22×36 cm) with stainless steel grid floors in a temperature-controlled (22±2° C.) room. The 12:12-h light-dark cycle was inversed (lights off 09:00 h).
# Rats had free access to water and restricted access to ground extruded feed (No. 3436, Provimi Kliba-nafag, Kaiseraugst, Switzerland). To prevent spoilage of food, it was placed in cups at the end of a tunnel (5×10×30 cm) that protruded from the side of the cage, with its bottom 5 cm above the cage floor. Food cups were mounted on electronic balances (Mettler PM 3000, Switzerland) that were interfaced with a computer (Olivetti M 300, Germany). Weights of the food cups were recorded the every 30 s, enabling continuous measurement of spontaneous feeding patterns. Anandamide (98% purity, dissolved in ethanol) was obtained from Cayman Chemical Company, Michigan, USA). It was stored deep-frozen, until the experiment. Than the proper quantity was mixed into sunflower oil.
# Before starting the experimental period, rats (394±7 g) were adapted to the restricted food access. One day prior to the test, they were also adapted to infusion of sunflower oil. The experimental period lasted five consecutive days. During the experiment, rats were deprived from food each day for 15 h (18.00-9.00 h). […] Each of these doses was given to three rats. One rat was excluded from the experiment after 2 days, and a spare animal was included.
# rats = settings: anandamide introduced by injection (Williams & Kirkham 2002); cited from earlier work
smiles,measurement,setting,value
"CCCCC/C=C\C/C=C\C/C=C\C/C=C\CCCC(=O)NCCO [anandamide, arachidonyl-ethanolamide]",voluntary food intake,test animals,ineffective
same,9-h cumulative food intake,Sprague-Dawley rats; 2.5 mg anandamide/d,25.8 g
same,food intake compared to the control,"Sprague-Dawley rats; 2.5 mg/d, intragastric",did not affect food intake
same,9-h cumulative food intake,Sprague-Dawley rats; 5.0 mg anandamide/d,27.6 g
same,food intake calculated as a mean over the 9-h period,Sprague-Dawley rats; 5.0 mg versus 0 or 2.5 mg anandamide,significantly lower
same,food intake compared to the control,"Sprague-Dawley rats; 5.0 mg, 3 through 6 hours after infusion, P<0.001, difference disappeared later",reduced food intake significantly
same,"9-h cumulative food intake, significance versus other treatments","Sprague-Dawley rats; 7.5 mg anandamide/d versus 0, 2.5 and 5.0 mg",significantly different from the other treatments
same,9-h cumulative food intake,Sprague-Dawley rats; 7.5 mg anandamide/d,23.0 g
same,food intake calculated as a mean over the 9-h period,Sprague-Dawley rats; 7.5 mg versus 0 or 2.5 mg anandamide,significantly lower
same,food intake compared to the control,"Sprague-Dawley rats; 7.5 mg/d, until 9 h post-infusion",lower food intake persisted until 9 h post-infusion
same,appetite / feeding effect,rats,Appetite stimulating effects were found
